Patent US12162858B2, “Quinoline derivatives as inhibitors of AXL/MER RTK and CSF1R” (QURIENT CO., LTD., priority 2018, dated 2024)

Experiments:
[1] = test system: EMT-6 tumor cells; assay: EMT-6 syngeneic tumor model; type: in vivo, BALB/c mice; conditions: oral, daily; vs compound 27 of WO 2016/166250 or vehicle; FIG. 1
Description: (§1) FIGS. 1 and 2 show comparison data of compound 4 of the present invention (marked with two asterisks** and diamond) vs. compound 27 of WO2016/166250 (marked with single asterisk* and open square) in mouse models EMT-6 and MV4-11; EMT-6 measures triple inhibition of Axl, Mer and CSF1R. MV4-11 measures inhibition of Axl.
In case of CSF1R, it mediates tumorigenesis in tumor-immune microenvironments and is expressed on myeloid cell tumor-associated macrophages (TAMs); elevated serum CSF1, increased numbers of TAMs in tumors, and high expression of tissue CSF1 and/or CSF1R are associated with poor prognosis in patients with various cancers. […] Therefore, EMT-6 is a suitable model for immune-oncology drug efficacy effects through changes in target immune cells.
BALB/c mice (6-8 week female, Beijing Vital River Laboratory Animal Technology Co., Ltd.) were inoculated subcutaneously at the upper right flank with EMT-6 tumor cells (1×10^6) in 0.1 mL of PBS for tumor development. […] Tumor volumes were measured every 3 days with a digital caliper, and were calculated using the formula: V=0.5a×b^2 where a and b are the long and short diameters of the tumor in mm, respectively. Body weight was measured every 3 days. […] Death and observed clinical signs were recorded on the basis of the numbers of animals within each subset. […]

[2] = test system: MV4-11 tumor cells; assay: MV4-11 xenograft tumor model; type: in vivo, BALB/c nude mice; conditions: oral, daily; vs compound 27 of WO 2016/166250 or vehicle; FIG. 2
Description: as §1
High expression of Axl or Gas6 in acute myeloid leukemia (AML) patients is prognostic for poor survival outcome. AML cells induce expression and secretion of the Axl ligand Gas6 by bone marrow-derived stromal cells (BMDSCs). Gas6 in turn mediates proliferation, survival, and chemoresistance of Axl-expressing AML cells. This Gas6/Axl paracrine axis between AML cells and BMDSCs establishes a chemoprotective tumor cell niche that can be abrogated by Axl-targeting approaches. […]
BALB/c nude mice (6-8 week female, Shanghai SIPPR/BK Laboratory Animal Co., LTD.) were inoculated subcutaneously at the upper right flank with MV4-11 tumor cells (1×10^7) in 0.1 mL of PBS+Matrigel (1:1) for tumor development. […] Tumor volumes were measured every 3 days with a digital caliper, and were calculated using the formula: V=0.5a×b^2 where a and b are the long and short diameters of the tumor in mm, respectively. Body weight was measured every 3 days. […] Death and observed clinical signs were recorded on the basis of the numbers of animals within each subset. […]

SMILES: CCn1cc(OCC(F)(F)F)c(C(=O)Nc2ccc(Oc3ccnc4cc(OC)c(OC)cc34)cn2)n1 [Compound 4]
- tumor growth delay, EMT-6 syngeneic model [1]: delay tumor growth to a significantly larger extent
- tumor growth delay, MV4-11 xenograft model [2]: delay tumor growth to a drastically larger extent
